One may read the EC50 as the concentration needed to bring the measured effect to its halfway point. As a reminder, the IC50 is the point on the concentration scale where inhibition reaches its midpoint.

The test system of assay [1] is HCV replicon cells. Briefly: HCV replicon FRET / luciferase assay. It is filed as cell-based. As to conditions: Hepatitis C virus, 50% reduction in FRET or luciferase activity. On the procedure: FRET Assay Preparation. The HCV FRET screening assay was performed in 96-well cell culture plates. The FRET peptide (Anaspec, Inc.) (Taliani et al., Anal. Biochem. 1996, 240, 60-67) contains a fluorescence donor, EDANS, near one end of the peptide and an acceptor, DABCYL, near the other end. The fluorescence of the peptide is quenched by […] resonance energy transfer (RET) between the donor and the acceptor, but as the NS3 protease cleaves the peptide the products are released from RET quenching and the fluorescence of the donor becomes apparent. The assay reagent was made as follows: 5× cell Luciferase cell culture lysis reagent from Promega (#E153A) diluted to 1× with dH2O, NaCl added to 150 mM final, the FRET peptide diluted to 20 μM final from a 2 mM stock.
To prepare plates, HCV replicon cells, with or without a Renilla luciferase reporter gene, were trypsinized and plated in a 96-well plate with titrated test compounds added in columns 3 through 12; columns 1 and 2 contained a control compound (HCV control inhibitor), and the bottom row contained cells with DMSO only. The plates were then placed in a CO2 incubator at 37° C.
Assays. Subsequent to addition of the test compounds described above (FRET Assay Preparation), at various times the plate was removed and Alamar blue solution (Trek Diagnostics, #00-100) was added to measure cellular toxicity. After reading in a Cytoflour 4000 instrument (PE Biosystems), plates were rinsed with PBS and then used for FRET assay by the addition of 30 ul of the FRET peptide assay reagent described above (FRET Assay Preparation) per well. The plate was then placed into the Cytoflour 4000 instrument which had been set to 340 excite/490 emission, automatic mode for up to 20 cycles and the plate read in a kinetic mode. Typically, the signal to noise using an endpoint analysis after the reads was at least three-fold. Alternatively, after Alamar blue reading, plates were rinsed with PBS, then used for luciferase assay using the Promega Dual-Glo Luciferase Assay System or the Promega EnduRen Live Cell Substrate assay.
Compound analysis was performed by quantification of the relative HCV replicon inhibition and the relative cytotoxicity values. To calculate cytoxicity values, the average Alamar Blue fluorescence signals from the control wells were set as 100% non-toxic. The individual signals in each of the compound test wells were then divided by the average control signal and multiplied by 100% to determine […]. To calculate the HCV replicon inhibition values, an average background value was obtained from the two wells containing the highest amount of HCV control inhibitor at the end of the assay period. These numbers were similar to those obtained from naïve Huh-7 cells. The background numbers were then subtracted from the average signal obtained from the control wells and this number was used as 100% activity. The individual signals in each of the compound test wells were then divided by the averaged control values after background subtraction and multiplied by 100% to determine percent activity. EC50 values were calculated as the concentration which caused a 50% reduction in FRET or luciferase activity. The two numbers generated for the compound plate, percent cytoxicity and percent activity, were used to determine compounds of interest for further analysis.
For orientation: Replicon systems follow genome replication, usually without infectious particles.

For assay [2], the target named is T1, HCV NS5B RdRp (Hepatitis C virus genotype 1b, UniProt Q9WMX2).
T1 construct: The protein was expressed with an 18 amino acid C-terminal truncation to enhance the solubility; made in house; host or cells: E. coli BL21(DE3)
T1 sequence (Q9WMX2 2420-2992): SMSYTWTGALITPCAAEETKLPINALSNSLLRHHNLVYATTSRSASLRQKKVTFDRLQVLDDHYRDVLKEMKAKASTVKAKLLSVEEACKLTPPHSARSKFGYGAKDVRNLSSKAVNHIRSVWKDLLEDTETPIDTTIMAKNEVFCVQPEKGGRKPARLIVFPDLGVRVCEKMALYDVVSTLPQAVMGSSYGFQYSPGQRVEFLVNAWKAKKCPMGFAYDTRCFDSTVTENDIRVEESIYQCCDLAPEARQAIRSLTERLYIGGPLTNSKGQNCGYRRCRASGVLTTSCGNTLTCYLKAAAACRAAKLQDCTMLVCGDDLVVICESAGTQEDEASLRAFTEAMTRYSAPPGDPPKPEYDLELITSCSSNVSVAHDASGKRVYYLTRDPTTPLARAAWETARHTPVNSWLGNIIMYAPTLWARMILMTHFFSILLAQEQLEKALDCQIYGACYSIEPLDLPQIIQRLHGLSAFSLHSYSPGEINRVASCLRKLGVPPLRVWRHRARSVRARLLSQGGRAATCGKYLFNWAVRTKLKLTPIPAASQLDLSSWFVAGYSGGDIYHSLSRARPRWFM
Briefly: HCV NS5B RdRp enzyme assay. It is filed as biochemical. Conditions: HCV NS5B genotype 1b, standard or modified RdRp assay not given. How it is done: HCV NS5B RdRp cloning, expression, and purification. The cDNA encoding the NS5B protein of HCV, genotype 1b, was cloned into the pET21a expression vector. The protein was expressed with an 18 amino acid C-terminal truncation to enhance the solubility. The E. coli competent cell line BL21(DE3) was used for expression of the protein. Cultures were grown at 37° C. for ˜4 hours until the cultures reached an optical density of 2.0 at 600 nm. The cultures were cooled to 20° C. and induced with 1 mM […]. Fresh ampicillin was added to a final concentration of 50 μg/ml and the cells were grown overnight at 20° C.
Cell pellets (3 L) were lysed for purification to yield 15-24 mgs of purified NS5B. The lysis buffer consisted of 20 mM Tris-HCl, pH 7.4, 500 mM NaCl, 0.5% triton X-100, 1 mM DTT, 1 mM EDTA, 20% glycerol, 0.5 mg/ml lysozyme, 10 mM MgCl2, 15 ug/ml deoxyribonuclease I, and Complete TM protease inhibitor tablets (Roche). After addition of the lysis buffer, frozen cell pellets were resuspended using a tissue homogenizer. To reduce the viscosity of the sample, aliquots of the lysate were sonicated on ice using a microtip attached to a Branson sonicator. The sonicated lysate was centrifuged at 100,000×g for 1 hr at 4° C. and filtered through a 0.2 μm filter unit (Corning).
The protein was purified using two sequential chromatography steps: Heparin sepharose CL-6B and polyU sepharose 4B (Pharmacia). The chromatography buffers were identical to the lysis buffer but contained no lysozyme, deoxyribonuclease I, MgCl2 or protease inhibitor and the NaCl concentration of the buffer was adjusted according to the requirements for charging the protein onto the column. Each column was eluted with a NaCl gradient which varied in length from 5-50 column volumes depending on the column type. After the final chromatography step, the resulting purity of the enzyme is >90% based on SDS-PAGE analysis. The enzyme was aliquoted and stored at −80° C.
Standard HCV NS5B RdRp enzyme assay. HCV RdRp genotype 1b assays were run in a final volume of 60 μl in 96 well plates (Corning 3600). The assay buffer is composed of 20 mM Hepes, pH 7.5, 2.5 mM KCl, 2.5 mM MgCl2, 1 mM DTT, 1.6 U RNAse inhibitor (Promega N2515), 0.01 mg/ml BSA (Sigma B6917), and 2% glycerol. All compounds were serially diluted (3-fold) in DMSO and diluted further in water such that the final concentration of DMSO in the assay was 2%. HCV RdRp genotype 1b enzyme was used at a final concentration of 28 nM. A polyA template was used at 6 nM, and a biotinylated oligo-dT12 primer was used at 180 nM final concentration. Template was obtained commercially (Amersham 27-4110). Biotinylated primer was prepared by Sigma Genosys. 3H-UTP was used at (0.29 μM total UTP). Reactions were initiated by the addition of enzyme, incubated at 30° C. for 60 min, and stopped by adding 25 μl of 50 mM EDTA containing SPA beads (4 μg/μl, Amersham RPNQ 0007). Plates were read on a Packard Top Count NXT after >1 hr incubation at room temperature.
Modified HCV NS5B RdRp enzyme assay. A modified enzyme assay was performed essentially as described for the standard enzyme assay except for the following: The biotinylated oligo dT12 primer was precaptured on streptavidin-coated SPA beads by mixing primer and beads in assay buffer and incubating at room temperature for one hour. Unbound primer was removed after centrifugation. The primer-bound beads were resuspended in 20 mM Hepes buffer, pH 7.5 and used in the assay at final concentrations of 20 nM primer and […] beads. Order of addition in the assay: enzyme (1.75 nM) was added to diluted compound followed by the addition of a mixture of template (0.36 nM), 3H-UTP (0.6 μCi, 0.29 μM), and primer-bound beads, to initiate the reaction; concentrations given are final. Reactions were allowed to proceed for 4 hours at 30° C.
IC50 values for compounds were determined using seven different [I]. […]

The compound `COc1ccc2c(c1)C1CC1(C(=O)N1CCCCC1c1nccs1)Cn1c-2c(C2CCCCC2)c2ccc(C(=O)NS(=O)(=O)N(C)C)cc21` (stereo not shown) returned a concentration giving a half-maximal response (EC50) in assay [1] (numeric values) of 290 nM. Also, the half-inhibitory concentration (IC50) in assay [2] (numeric values) came out at 70 nM.

As for `COc1ccc2c(c1)C1CC1(C(=O)N1CCC(c3nc4cc(C)ccc4[nH]3)CC1)Cn1c-2c(C2CCCCC2)c2ccc(C(=O)NS(=O)(=O)N(C)C)cc21` (stereo not shown), the EC50 in assay [1] (class symbols) fell in the range of 2 to 500 nM. The compound further displayed a concentration for half-maximal inhibition (IC50) in assay [2] (class symbols) of 2 to 500 nM.

`COc1ccc(-c2cnn(C3CCN(C(=O)C45CC4c4cc(OC)ccc4-c4c(C6CCCCC6)c6ccc(C(=O)NS(=O)(=O)N(C)C)cc6n4C5)CC3)c2)cc1` (stereo not shown): in assay [1] (class symbols), the EC50 lay in the range of 2 to 500 nM. Moreover, the IC50 in assay [2] (class symbols) lay in the range of 2 to 500 nM.

`COc1ccc2c(c1)C1CC1(C(=O)N1CCC(c3cc4ccccc4o3)CC1)Cn1c-2c(C2CCCCC2)c2ccc(C(=O)NS(=O)(=O)C(C)C)cc21` (stereo not shown) displayed a 50% effective concentration (EC50) in assay [1] (class symbols) above 500 nM. The IC50 in assay [2] (class symbols) lay within 2 to 500 nM.

`COc1ccc2c(c1)C1CC1(C(=O)N1CCC(c3c[nH]c4ccccc34)CC1)Cn1c-2c(C2CCCCC2)c2ccc(C(=O)NS(=O)(=O)C(C)C)cc21` (stereo not shown): the EC50 in assay [1] (class symbols) lay within 2 to 500 nM. The same compound registered an IC50 in assay [2] (class symbols) of 2 to 500 nM.

`COc1ccc2c(c1)C1CC1(C(=O)N1CCC(c3nnc(C)o3)CC1)Cn1c-2c(C2CCCCC2)c2ccc(C(=O)NS(=O)(=O)C(C)C)cc21` (stereo not shown) registered an EC50 in assay [1] (numeric values) of 110 nM. In assay [2] (numeric values), inhibition was half-maximal at 70 nM (IC50).

In turn, `COc1ccc2c(c1)C1CC1(C(=O)N1CCC(c3nnc(N)s3)CC1)Cn1c-2c(C2CCCCC2)c2ccc(C(=O)NS(=O)(=O)N(C)C)cc21` (stereo not shown) returned an EC50 in assay [1] (numeric values) of 190 nM. The same compound returned a 50% inhibitory concentration (IC50) in assay [2] (numeric values) of 60 nM.

In turn, `COc1ccc2c(c1)C1CC1(C(=O)N1CCC(c3nncn3C)CC1)Cn1c-2c(C2CCCCC2)c2ccc(C(=O)NS(=O)(=O)N(C)C)cc21` (stereo not shown) returned an EC50 in assay [1] (class symbols) of 2 to 500 nM. Besides, the 50% inhibitory concentration (IC50) in assay [2] (class symbols) was 2 to 500 nM.

With `COc1ccc2c(c1)C1CC1(C(=O)N1CCCCC1c1nc(C(C)C)no1)Cn1c-2c(C2CCCCC2)c2ccc(C(=O)NS(=O)(=O)N(C)C)cc21` (stereo not shown), in assay [1] (class symbols), the EC50 is 2 to 500 nM. The IC50 in assay [2] (class symbols) lay in the range of 2 to 500 nM.

`COc1ccc2c(c1)C1CC1(C(=O)N1CCC(c3nc(C)no3)CC1)Cn1c-2c(C2CCCCC2)c2ccc(C(=O)NS(=O)(=O)N(C)C)cc21` (stereo not shown) gave a concentration for a half-maximal effect (EC50) in assay [1] (numeric values) of 90 nM. Further, in assay [2] (numeric values), inhibition was half-maximal at 30 nM (IC50).

Compound `COc1ccc2c(c1)C1CC1(C(=O)N1CCC(c3nc4ccccc4o3)CC1)Cn1c-2c(C2CCCCC2)c2ccc(C(=O)NS(=O)(=O)N(C)C)cc21` (stereo not shown) had an EC50 in assay [1] (class symbols) of 2 to 500 nM. The IC50 in assay [2] (class symbols) lay in the range of 2 to 500 nM.
